Assay results published in US6706663B2, “Herbicidal 3-heterocyclic substituted benzisothiazole and benzisoxazole compounds” (Wyeth, priority 2000, dated 2004).

What was measured:
[1] = system: SAGPY (Sagittaria pygmaea); assay: Flooded paddy, preemergence weed control; assay type: in vivo, L.; settings: rated 3-4 weeks after treatment, 0-9 rating scale
Method in brief: (§1)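 Seeds or propagating organs were sown in the top 0.5 cm of silt loam soil, flooded, and the water kept 1.5 to 3 cm above the soil surface throughout. Plants were grown in the greenhouse and rated visually on a 0-9 scale against a control.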

[2] = system: IPOHE (Ipomoea hederacea); assay: Preemergence herbicidal evaluation; assay type: in vivo, (L.) Jacq.; settings: preemergence, rated 4-5 weeks after treatment
ZEAMX (Corn, Field) [3] = assay: Preemergence herbicidal evaluation; assay type: in vivo, Zea mays, L.; settings: preemergence, rated 4-5 weeks after treatment
[4] = system: GLXMAW (Soybean, Williams); assay: Postemergence herbicidal evaluation; assay type: in vivo, Glycine max, (L.) Merr. cv Williams
Method in brief: (§2)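 Visual 0–9 injury scores versus control plants, covering stand, vigour, malformation, size, chlorosis and general appearance, taken four to five weeks post-spray and averaged over replicate tests. Plants were sprayed at roughly two weeks old and held on greenhouse benches.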

ORYSAT (Rice, Tebonnet) = assay: Preemergence herbicidal evaluation; assay type: in vivo, Oryza sativa, (L.) Tebonnet; settings: preemergence, rated 4-5 weeks after treatment
[5] = system: ECHCG (Echinochloa crus-galli); assay: Postemergence herbicidal evaluation; assay type: in vivo, (L.) Beau
Method in brief: as §2

GALAP (Galium aparine) [6] = assay: Postemergence herbicidal evaluation; assay type: in vivo
Method in brief: as §2

[7] = system: GLXMAW (Soybean, Williams); assay: Preemergence herbicidal evaluation; assay type: in vivo, Glycine max, (L.) Merr. cv Williams; settings: preemergence, rated 4-5 weeks after treatment
[8] = system: IPOHE (Ipomoea hederacea); assay: Postemergence herbicidal evaluation; assay type: in vivo, (L.) Jacq.
Method in brief: as §2

[9] = system: ABUTH (Abutilon theophrasti); assay: Postemergence herbicidal evaluation; assay type: in vivo, Medic.
Method in brief: as §2

[10] = system: TRZAWR (Wheat, Winter, cv Riband); assay: Preemergence herbicidal evaluation; assay type: in vivo, Triticum aestivum; settings: preemergence, rated 4-5 weeks after treatment
Method in brief: (§3)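 Visual 0-9 rating versus untreated control, taken four to five weeks post-treatment, scoring stand, vigor, malformation, size, chlorosis and overall appearance. Compound applied as aqueous acetone spray to freshly seeded soil cups, then kept under standard greenhouse care.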

[11] = system: CHEAL (Chenopodium album); assay: Preemergence herbicidal evaluation; assay type: in vivo, L.; settings: preemergence, rated 4-5 weeks after treatment
Method in brief: as §3

[12] = system: AMBEL (Ambrosia artemisifolia); assay: Preemergence herbicidal evaluation; assay type: in vivo, L.; settings: preemergence, rated 4-5 weeks after treatment
Method in brief: as §3

[13] = system: CASOB (Cassia obtusifolia); assay: Preemergence herbicidal evaluation; assay type: in vivo, L.; settings: preemergence, rated 4-5 weeks after treatment
Method in brief: as §3

CYPIR (Cyperus iria) = assay: Flooded paddy, preemergence weed control; assay type: in vivo; settings: rated 3-4 weeks after treatment, 0-9 rating scale
Method in brief: as §1

[14] = system: ECHORC (Echinochloa oryzoides); assay: Flooded paddy, preemergence weed control; assay type: in vivo, Echinochloa oryzoides (Ard.) Fritsch.; settings: rated 3-4 weeks after treatment, 0-9 rating scale
Method in brief: as §1

[15] = system: CHEAL (Chenopodium album); assay: Postemergence herbicidal evaluation; assay type: in vivo, L.
Method in brief: as §2

[16] = system: AMBEL (Ambrosia artemisifolia); assay: Postemergence herbicidal evaluation; assay type: in vivo, L.
Method in brief: as §2

[17] = system: CASOB (Cassia obtusifolia); assay: Postemergence herbicidal evaluation; assay type: in vivo, L.
Method in brief: as §2

[18] = system: CYPSE (Cyperus serotinus); assay: Flooded paddy, preemergence weed control; assay type: in vivo, Rottb.; settings: rated 3-4 weeks after treatment, 0-9 rating scale
Method in brief: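 Herbicidal effect was scored visually on a 0–9 scale against an untreated control 3–4 weeks after treatment. Compounds were applied preemergence as 50/50 v/v aqueous/acetone mixtures into flood water (1.5–3 cm deep over silt loam), at roughly 0.0080 to 0.1250 kg/ha active ingredient.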

GALAP (Galium aparine) [19] = assay: Preemergence herbicidal evaluation; assay type: in vivo; settings: preemergence, rated 4-5 weeks after treatment
Method in brief: as §3

ZEAMX (Corn, Field) [20] = assay: Postemergence herbicidal evaluation; assay type: in vivo, Zea mays, L.
Method in brief: as §2

SMILES: Cc1ccn(-c2nsc3ccc(-n4c(=O)cc(C(F)(F)F)n(C)c4=O)cc23)n1 [Compound 38, 1-methyl-3-[3-(3-methylpyrazol-1-yl)-1,2-benzisothiazol-5-yl]-6-(trifluoromethl)uracil]
- herbicidal rating, SAGPY ([1]; rate 0.0080 kg/ha): 0.0
- herbicidal rating, SAGPY ([1]; rate 0.0320 kg/ha): 4.5
- herbicidal rating, SAGPY ([1]; rate 0.1250 kg/ha): 9.0
- IPOHE preemergence herbicidal rating ([2]; Rate 0.0620 kg/ha): 0.0
- IPOHE preemergence herbicidal rating ([2]; Rate 0.1250 kg/ha): 0.0
- IPOHE preemergence herbicidal rating ([2]; Rate 0.2500 kg/ha): 6.0
- ZEAMX preemergence herbicidal rating (ZEAMX (Corn, Field) [3]; Rate 0.0620 kg/ha): 5.0
- ZEAMX preemergence herbicidal rating (ZEAMX (Corn, Field) [3]; Rate 0.1250 kg/ha): 5.0
- ZEAMX preemergence herbicidal rating (ZEAMX (Corn, Field) [3]; Rate 0.2500 kg/ha): 8.0
- Postemergence herbicidal rating, GLXMAW ([4]; rate 0.0320 kg/ha): 5.5
- Postemergence herbicidal rating, GLXMAW ([4]; rate 0.0620 kg/ha): 7.0
- ORYSAT preemergence herbicidal rating (ORYSAT (Rice, Tebonnet); Rate 0.0620 kg/ha): 4.0
- ORYSAT preemergence herbicidal rating (ORYSAT (Rice, Tebonnet); Rate 0.1250 kg/ha): 5.0
- ORYSAT preemergence herbicidal rating (ORYSAT (Rice, Tebonnet); Rate 0.2500 kg/ha): 7.0
- Postemergence herbicidal rating, ECHCG ([5]; rate 0.0320 kg/ha): 0.0
- Postemergence herbicidal rating, ECHCG ([5]; rate 0.0620 kg/ha): 3.0
- Postemergence herbicidal rating, GALAP (GALAP (Galium aparine) [6]; rate 0.0320 kg/ha): 0.0
- Postemergence herbicidal rating, GALAP (GALAP (Galium aparine) [6]; rate 0.0620 kg/ha): 4.0
- GLXMAW preemergence herbicidal rating ([7]; Rate 0.0620 kg/ha): 0.0
- GLXMAW preemergence herbicidal rating ([7]; Rate 0.1250 kg/ha): 4.0
- GLXMAW preemergence herbicidal rating ([7]; Rate 0.2500 kg/ha): 4.0
- Postemergence herbicidal rating, IPOHE ([8]; rate 0.0320 kg/ha): 7.0
- Postemergence herbicidal rating, IPOHE ([8]; rate 0.0620 kg/ha): 9.0
- Postemergence herbicidal rating, ABUTH ([9]; rate 0.0320 kg/ha): 9.0
- Postemergence herbicidal rating, ABUTH ([9]; rate 0.0620 kg/ha): 9.0
- TRZAWR preemergence herbicidal rating ([10]; Rate 0.0620 kg/ha): 3.0
- TRZAWR preemergence herbicidal rating ([10]; Rate 0.1250 kg/ha): 4.0
- TRZAWR preemergence herbicidal rating ([10]; Rate 0.2500 kg/ha): 5.0
- CHEAL preemergence herbicidal rating ([11]; Rate 0.0620 kg/ha): 9.0
- CHEAL preemergence herbicidal rating ([11]; Rate 0.1250 kg/ha): 9.0
- CHEAL preemergence herbicidal rating ([11]; Rate 0.2500 kg/ha): 9.0
- AMBEL preemergence herbicidal rating ([12]; Rate 0.0620 kg/ha): 0.0
- AMBEL preemergence herbicidal rating ([12]; Rate 0.1250 kg/ha): 3.0
- AMBEL preemergence herbicidal rating ([12]; Rate 0.2500 kg/ha): 7.0
- CASOB preemergence herbicidal rating ([13]; Rate 0.0620 kg/ha): 0.0
- CASOB preemergence herbicidal rating ([13]; Rate 0.1250 kg/ha): 0.0
- CASOB preemergence herbicidal rating ([13]; Rate 0.2500 kg/ha): 0.0
- herbicidal rating, CYPIR (CYPIR (Cyperus iria); rate 0.0080 kg/ha): 3.0
- herbicidal rating, CYPIR (CYPIR (Cyperus iria); rate 0.0320 kg/ha): 9.0
- herbicidal rating, CYPIR (CYPIR (Cyperus iria); rate 0.1250 kg/ha): 9.0
- herbicidal rating, ECHORC ([14]; rate 0.0080 kg/ha): 0.0
- herbicidal rating, ECHORC ([14]; rate 0.0320 kg/ha): 7.0
- herbicidal rating, ECHORC ([14]; rate 0.1250 kg/ha): 9.0
- Postemergence herbicidal rating, CHEAL ([15]; rate 0.0320 kg/ha): 0.0
- Postemergence herbicidal rating, CHEAL ([15]; rate 0.0620 kg/ha): 3.0
- Postemergence herbicidal rating, AMBEL ([16]; rate 0.0320 kg/ha): 0.0
- Postemergence herbicidal rating, AMBEL ([16]; rate 0.0620 kg/ha): 0.0
- Postemergence herbicidal rating, CASOB ([17]; rate 0.0320 kg/ha): 0.0
- Postemergence herbicidal rating, CASOB ([17]; rate 0.0620 kg/ha): 1.0
- herbicidal rating, CYPSE ([18]; rate 0.0320 kg/ha): 9.0
- herbicidal rating, CYPSE ([18]; rate 0.1250 kg/ha): 9.0
- GALAP preemergence herbicidal rating (GALAP (Galium aparine) [19]; Rate 0.0620 kg/ha): 5.0
- GALAP preemergence herbicidal rating (GALAP (Galium aparine) [19]; Rate 0.1250 kg/ha): 3.0
- GALAP preemergence herbicidal rating (GALAP (Galium aparine) [19]; Rate 0.2500 kg/ha): 5.0
- Postemergence herbicidal rating, ZEAMX (ZEAMX (Corn, Field) [20]; rate 0.0320 kg/ha): 5.0
- Postemergence herbicidal rating, ZEAMX (ZEAMX (Corn, Field) [20]; rate 0.0620 kg/ha): 5.5
